# Where a name gives a salt, the structure may show the parent alone.
# Assays:
# [1] = system: Escherichia coli; assay: microbe, parasite or virus in culture; details: ATCC 25922, 18 h, ASSAY_TEST Inhibition of Bacterial Growth, detection method Absorption (OD600), MEDIA CAMHB, plate type 384well, NBS, CORNING #3640
# Description: (§1) Antibacterial activity against Escherichia coli ATCC 25922 (CO-ADD:GN_001); MIC in CAMBH media using NBS plates, by OD(600)
# [2] = system: Candida albicans; assay: microbe, parasite or virus in culture; details: ATCC 90028, ASSAY_TEST Inhibition of Fungal Growth, detection method Absorption (OD530), plate type 384well, NBS, CORNING #3640
# Description: (§2) Antifungal activity against Candida albicans ATCC 90028 (CO-ADD:FG_001); MIC in YNB media using NBS plates, by OD630
# [3] = system: HEK293; assay: cells; assay type: functional, Homo sapiens, ATCC CRL1573; details: ASSAY_TEST Inhibition of Cell Viability, detection method Resazurin, Fluorescence (ex560/em590), MEDIA DMEM with 10% FBS, plate type 384well, TC, CORNING #3712, time 18 hr
# [4] = system: Acinetobacter baumannii; details: ASSAY_TEST Inhibition of Bacterial Growth; detection method Absorption (OD600); MEDIA CAMHB; plate type 384well; NBS; CORNING #3640; time 18 hr
# Description: (§3) Antibacterial activity against Acinetobacter baumannii ATCC 19606 (CO-ADD:GN_034); MIC in CAMBH media using NBS plates, by OD600
# [5] = system: Klebsiella pneumoniae; assay: microbe, parasite or virus in culture; details: ATCC 700603, 18 h, ASSAY_TEST Inhibition of Bacterial Growth, detection method Absorption (OD600), MEDIA CAMHB, plate type 384well, NBS, CORNING #3640
# Description: (§4) Antibacterial activity against Klebsiella pneumoniae MDR ATCC 70063 (CO-ADD:GN_003); MIC in CAMBH media using NBS plates, by OD(600)
# [6] = system: Cryptococcus neoformans
# Description: Antifungal activity against Cryptococcus neoformans H99 ATCC 208821 (CO-ADD:FG_002); MIC in YNB media using NBS plates, by Resazurin OD(600-570)
# [7] = system: Staphylococcus aureus; details: ASSAY_TEST Inhibition of Bacterial Growth; detection method Absorption (OD600); MEDIA CAMHB; plate type 384well; NBS; CORNING #3640; time 18 hr
# Description: (§5) Antibacterial activity against Staphylococcus aureus MRSA ATCC 43300 (CO-ADD:GP_020); MIC in CAMBH media, using NBS plates, by OD(600)
# [8] = system: Pseudomonas aeruginosa; details: ASSAY_TEST Inhibition of Bacterial Growth; detection method Absorption (OD600); MEDIA CAMHB; plate type 384well; NBS; CORNING #3640; time 18 hr
# Description: (§6) Antibacterial activity against Pseudomonas aeruginosa ATCC 27853 (CO-ADD:GN_042); MIC in CAMBH media using NBS plates, by OD(600)
# [9] = system: Pseudomonas aeruginosa; assay: microbe, parasite or virus in culture; details: ATCC 27853, 18 h, ASSAY_TEST Inhibition of Bacterial Growth, detection method Absorption (OD600), MEDIA CAMHB, plate type 384well, NBS, CORNING #3640
# Description: as §6
# [10] = system: Acinetobacter baumannii; assay: microbe, parasite or virus in culture; details: ATCC 19606, 18 h, ASSAY_TEST Inhibition of Bacterial Growth, detection method Absorption (OD600), MEDIA CAMHB, plate type 384well, NBS, CORNING #3640
# Description: as §3
# [11] = system: Staphylococcus aureus; assay: microbe, parasite or virus in culture; details: ATCC 43300, 18 h, ASSAY_TEST Inhibition of Bacterial Growth, detection method Absorption (OD600), MEDIA CAMHB, plate type 384well, NBS, CORNING #3640
# Description: as §5
# [12] = system: Escherichia coli; details: ASSAY_TEST Inhibition of Bacterial Growth; detection method Absorption (OD600); MEDIA CAMHB; plate type 384well; NBS; CORNING #3640; time 18 hr
# Description: as §1
# [13] = system: Candida albicans; details: ASSAY_TEST Inhibition of Fungal Growth; detection method Absorption (OD530); plate type 384well; NBS; CORNING #3640
# Description: as §2
# [14] = system: Klebsiella pneumoniae; details: ASSAY_TEST Inhibition of Bacterial Growth; detection method Absorption (OD600); MEDIA CAMHB; plate type 384well; NBS; CORNING #3640; time 18 hr
# Description: as §4
# [15] = Homo sapiens, ATCC CRL1573, HEK293
SMILES,MIC [1] [µM],MIC [2] [µM],MIC [4] [µM],MIC [5] [µM],MIC [6] [µM],MIC [7] [µM],MIC [8] [µM],MIC [9] [µM],MIC [10] [µM],MIC [11] [µM],MIC [12] [µM],MIC [13] [µM],MIC [14] [µM],"CC50 [3, 15] [µM]",CC50 [3] [µM]
C[C@H]1COc2c(N3CCN(C)CC3)c(F)cc3c(=O)c(C(=O)O)cn1c23.C[C@H]1COc2c(N3CCN(C)CC3)c(F)cc3c(=O)c(C(=O)O)cn1c23.O [LEVOFLOXACIN],≤ 0.0781,> 10,2.5,2.5,> 10,0.625,0.625,,,,,,,> 10,
Cc1noc(NS(=O)(=O)c2ccc(N)cc2)c1C [SULFISOXAZOLE],> 10,> 10,,> 10,> 10,,,> 10,> 10,> 10,,,,> 10,
Clc1ccc(CO/N=C(\Cn2ccnc2)c2ccc(Cl)cc2Cl)c(Cl)c1 [OXICONAZOLE NITRATE],> 10,≤ 0.0781,,> 10,≤ 0.0781,,,> 10,> 10,> 10,,,,> 10,
CC(=O)Oc1ccccc1C(=O)Nc1ncc([N+](=O)[O-])s1 [NITAZOXANIDE],> 10,> 10,,> 10,> 10,,,> 10,> 10,> 10,,,,> 10,
C/C(=C\C(=O)OCCCCCCCCC(=O)O)C[C@@H]1OC[C@H](C[C@@H]2O[C@H]2[C@@H](C)[C@H](C)O)[C@@H](O)[C@H]1O [MUPIROCIN],> 10,10,,> 10,> 10,,,> 10,> 10,0.312,,,,> 10,
Oc1c(Cl)cc(Cl)c(Cl)c1Cc1c(O)c(Cl)cc(Cl)c1Cl [HEXACHLOROPHENE],> 10,> 10,,> 10,> 10,,,> 10,> 10,5,,,,> 10,
CCC(C)n1ncn(-c2ccc(N3CCN(c4ccc(OCC5COC(Cn6cncn6)(c6ccc(Cl)cc6Cl)O5)cc4)CC3)cc2)c1=O (configuration not stated) [ITRACONAZOLE],> 10,≤ 0.0781,,> 10,0.156,,,> 10,> 10,> 10,,,,> 10,

# Now from value to molecule, other results behind:
MIC [1] [µM],MIC [2] [µM],MIC [4] [µM],MIC [5] [µM],MIC [6] [µM],MIC [7] [µM],MIC [8] [µM],MIC [9] [µM],MIC [10] [µM],MIC [11] [µM],MIC [12] [µM],MIC [13] [µM],MIC [14] [µM],SMILES,"CC50 [3, 15] [µM]",CC50 [3] [µM]
10,> 10,,> 10,> 10,,,> 10,> 10,> 10,,,,CO[C@@]1(NC(=O)Cc2cccs2)C(=O)N2C(C(=O)O)=C(COC(N)=O)CS[C@@H]21 [CEFOXITIN SODIUM],> 10,
> 10,> 10,,> 10,> 10,,,> 10,> 10,> 10,,,,CC1(C)SC2C(NC(=O)C(N)c3ccccc3)C(=O)N2C1C(=O)O (configuration not stated),> 10,
≤ 0.0781,> 10,,5,> 10,,,0.625,2.5,0.156,,,,COc1c(N2C[C@@H]3CCCN[C@@H]3C2)c(F)cc2c(=O)c(C(=O)O)cn(C3CC3)c12 [MOXIFLOXACIN HYDROCHLORIDE],> 10,
,,>10,,> 10,5,>10,,,,>10,>10,>10,COc1cccc2c1C(=O)c1c(O)c3c(c(O)c1C2=O)C[C@@](O)(C(C)=O)C[C@@H]3OC1CC(N)C(O)C(C)O1.Cl (some centres not stated),,0.148
> 10,> 10,,> 10,> 10,,,> 10,> 10,10,,,,COc1cccc2c1C(=O)c1c(O)c3c(c(O)c1C2=O)C[C@@](O)(C(=O)CO)C[C@@H]3O[C@H]1C[C@H](N)[C@@H](O)[C@H](C)O1 [EPIRUBICIN HYDROCHLORIDE],1.14,
10,> 10,,> 10,> 10,,,> 10,> 10,5,,,,CON=C(C(=O)N[C@@H]1C(=O)N2C(C(=O)O)=C(COC(N)=O)CS[C@H]12)c1ccco1,> 10,
> 10,> 10,,> 10,> 10,,,> 10,> 10,> 10,,,,O=c1[nH]cnc2c1ncn2[C@H]1CC[C@@H](CO)O1 [DIDANOSINE],> 10,

# — ChEMBL document CHEMBL4513141, “CO-ADD screening of NIH (USA) - Clinical Collection” (2021)
